Test results published in patent US10376499B2, “Combination therapy for treatment of resistant bacterial infections” (priority 2014, dated 2019).
≈ marks a conversion by molar mass, not a printed value.

Tests used:
A. baumannii [1] = experiment: MIC, 20 diverse recent strains of A. baumannii (Example 10); assay type: cell-based, Acinetobacter baumannii; details: N 20 A. baumannii strains
Klebsiella pneumoniae = experiment: MIC, recent Enterobacteriaceae clinical isolates: Klebsiella pneumoniae (Examples 7, 11)
Citrobacter spp = experiment: MIC, recent Enterobacteriaceae clinical isolates: Citrobacter spp (Examples 7, 11); assay type: cell-based; details: Citrobacter spp, N 7
A. baumannii [2] = experiment: MIC90 of common antibiotics+compound 1, 196 contemporary clinical isolates of A. baumannii (Example 4); details: B-lactam + Cmpd 1 (4 μg/mL)
Escherichia coli = experiment: MIC, recent Enterobacteriaceae clinical isolates: Escherichia coli (Examples 7, 11); details: Escherichia coli
Enterobacteriaceae = experiment: organism not typed; assay type: cell-based
Enterobacter cloacae = experiment: MIC, recent Enterobacteriaceae clinical isolates: Enterobacter cloacae (Examples 7, 11); assay type: cell-based
A. baumannii [3] = experiment: MIC by broth microdilution (CLSI), panel of 60 A. baumannii clinical isolates (Example 1)

C[C@@H](O)[C@H]1C(=O)N2C(C(=O)O)=C(SCCNC=N)C[C@H]12 [Imipenem, (5R,6S)-3-[[2-(formimidoylamino)ethyl]thio]-6-[(R)-1-hydroxyethyl]-7-oxo-1-azabicyclo[3.2.0]hept-2-ene-2-carboxylic acid]
MIC50 (A. baumannii [1]): 64 µg/mL (≈ 214 µM)
MIC90 (A. baumannii [1]): > 64 µg/mL
MIC Max (A. baumannii [1]): > 64 µg/mL
MIC Min (A. baumannii [1]): 0.25 µg/mL (≈ 0.835 µM)
MIC50 (Klebsiella pneumoniae): 0.25 µg/mL (≈ 0.835 µM)
MIC90 (Klebsiella pneumoniae): 8 µg/mL (≈ 26.7 µM)
MIC50 (Citrobacter spp; read-out: MIC50): 0.5 µg/mL (≈ 1.67 µM)
MIC90 (Citrobacter spp; read-out: MIC90): 4 µg/mL (≈ 13.4 µM)
MIC90 (A. baumannii [2]): 16 µg/mL
MIC50 (Escherichia coli): 0.25 µg/mL (≈ 0.835 µM)
MIC90 (Escherichia coli): 0.5 µg/mL (≈ 1.67 µM)
MIC50 (Enterobacteriaceae): 0.5 µg/mL (≈ 1.67 µM)
MIC90 (Enterobacteriaceae): 4 µg/mL (≈ 13.4 µM)
MIC90 (Enterobacter cloacae; N 10): 1 µg/mL (≈ 3.34 µM)
MIC50 (Enterobacter cloacae; N 10, read-out: MIC50): 0.5 µg/mL (≈ 1.67 µM)

C[C@H]1[C@H](NC(=O)/C(=N\OC(C)(C)C(=O)O)c2csc(N)n2)C(=O)N1S(=O)(=O)O [Aztreonam]
MIC90 (A. baumannii [2]): >64 µg/mL

CO/N=C(\C(=O)N[C@@H]1C(=O)N2C(C(=O)[O-])=C(C[N+]3(C)CCCC3)CS[C@H]12)c1csc(N)n1 [Cefepime]
MIC90 (A. baumannii [2]): 32 µg/mL

gentamycin
MIC (A. baumannii [3]; strain ARC593, OXA-98): 8 µg/mL
MIC (A. baumannii [3]; strain ARC2058, OXA-95): 1 µg/mL
MIC (A. baumannii [3]; strain ARC2461, OXA-66, TEM-1): >32 µg/mL
MIC (A. baumannii [3]; strain ARC2462, TEM-1, OXA-66): >32 µg/mL
MIC (A. baumannii [3]; strain ARC2598, OXA*, TEM-1, OXA-113): 2 µg/mL
MIC (A. baumannii [3]; strain ARC2635, OXA-65, OXA-40, TEM-1): >32 µg/mL
MIC (A. baumannii [3]; strain ARC2636, OXA-65, OXA-40, TEM-1): >32 µg/mL
MIC (A. baumannii [3]; strain ARC2674, SHV-5, OXA-113): 8 µg/mL
MIC (A. baumannii [3]; strain ARC2675, SHV-5, OXA-113): >32 µg/mL
MIC (A. baumannii [3]; strain ARC2681, OXA-40, TEM-1, OXA-132): >32 µg/mL
MIC (A. baumannii [3]; strain ARC2682, SHV-5, OXA-113): >32 µg/mL
MIC (A. baumannii [3]; strain ARC2777, OXA-172, TEM-1): 16 µg/mL
MIC (A. baumannii [3]; strain ARC2778, OXA-40, TEM-1, OXA-65): >32 µg/mL
MIC (A. baumannii [3]; strain ARC2779 (A. baumannii/calcoaceticus complex), OXA-2, VIM-2): >32 µg/mL
MIC (A. baumannii [3]; strain ARC2780 (A. baumannii/calcoaceticus complex), OXA*, OXA-2, IMP-1): >32 µg/mL
MIC (A. baumannii [3]; strain ARC2782, OXA-66, OXA-23, TEM-1, PER-1): >32 µg/mL
MIC (A. baumannii [3]; strain ARC2788, OXA-65, TEM-1): 16 µg/mL
MIC (A. baumannii [3]; strain ARC3484, TEM-1, OXA-23, OXA-64): >32 µg/mL
MIC (A. baumannii [3]; strain ARC3485, OXA-82): 1 µg/mL
MIC (A. baumannii [3]; strain ARC3486, OXA-72, OXA-66, TEM-1): >32 µg/mL
MIC (A. baumannii [3]; strain ARC3487, OXA-20, OXA-58, OXA-66): 8 µg/mL
MIC (A. baumannii [3]; strain ARC3488, OXA*, OXA-68): >32 µg/mL
MIC (A. baumannii [3]; strain ARC3489, OXA*, OXA-68): >32 µg/mL
MIC (A. baumannii [3]; strain ARC3490, TEM-1+, PSE-2, OXA-69): 16 µg/mL
MIC (A. baumannii [3]; strain ARC3491 (A. baumannii/calcoaceticus complex), OXA-215): 2 µg/mL
MIC (A. baumannii [3]; strain ARC3492, OXA-40, OXA-132, TEM-1): >32 µg/mL
MIC (A. baumannii [3]; strain ARC3493, OXA-40, OXA-66): >32 µg/mL
MIC (A. baumannii [3]; strain ARC3494, OXA-65): 0.25 µg/mL
MIC (A. baumannii [3]; strain ARC3495, OXA-40, OXA-109): >32 µg/mL
MIC (A. baumannii [3]; strain ARC3513, TEM-1, OXA-23, OXA-65): >32 µg/mL
MIC (A. baumannii [3]; strain ARC3515, OXA-64, OXA-58): 4 µg/mL
MIC (A. baumannii [3]; strain ARC3657, OXA-130): 0.25 µg/mL
MIC (A. baumannii [3]; strain ARC3658, OXA-66, PER-1, TEM-1, OXA-23): >32 µg/mL
MIC (A. baumannii [3]; strain ARC3659, OXA-23, OXA*): >32 µg/mL
MIC (A. baumannii [3]; strain ARC3882, OXA-23, NDM-1, OXA-10*): >32 µg/mL
MIC (A. baumannii [3]; strain ARC5073, OXA-23, TEM-1, OXA-64, PER-1): 0.5 µg/mL
MIC (A. baumannii [3]; strain ARC5074, GES*, TEM-1, OXA-51): 0.125 µg/mL
MIC (A. baumannii [3]; strain ARC5075, SHV-5, OXA-113): >32 µg/mL
MIC (A. baumannii [3]; strain ARC5076, TEM-1, OXA-23, OXA-66): 8 µg/mL
MIC (A. baumannii [3]; strain ARC5077, OXA*, OXA-72): >32 µg/mL
MIC (A. baumannii [3]; strain ARC5079, OXA-72, OXA-65): 8 µg/mL
MIC (A. baumannii [3]; strain ARC5080, OXA-71, OXA-40): >32 µg/mL
MIC (A. baumannii [3]; strain ARC5081, OXA-94, OXA-23): 0.25 µg/mL
MIC (A. baumannii [3]; strain ARC5082, OXA-66, OXA-23): 0.5 µg/mL
MIC (A. baumannii [3]; strain ARC5083, OXA-66, OXA-23): >32 µg/mL
MIC (A. baumannii [3]; strain ARC5084, IMP-4(B), OXA-58, OXA-65): >32 µg/mL
MIC (A. baumannii [3]; strain ARC5085, OXA*, TEM-1): >32 µg/mL
MIC (A. baumannii [3]; strain ARC5086, OXA*, TEM-1, OXA-72, OXA-66): >32 µg/mL
MIC (A. baumannii [3]; strain ARC5087, OXA-66, OXA-23): >32 µg/mL
MIC (A. baumannii [3]; strain ARC5088, OXA-20, OXA-58, OXA-66): 8 µg/mL
MIC (A. baumannii [3]; strain ARC5089, PER*, TEM-1, OXA-23, OXA-66): >32 µg/mL
MIC (A. baumannii [3]; strain ARC5091, OXA-82, OXA-23): >32 µg/mL
MIC (A. baumannii [3]; strain ARC5092, OXA-23, OXA-64): >32 µg/mL

CCN1CCN(C(=O)N[C@@H](C(=O)N[C@@H]2C(=O)N3[C@@H]2SC(C)(C)[C@@H]3C(=O)O)c2ccccc2)C(=O)C1=O [Piperacillin]
MIC90 (A. baumannii [2]): 32 µg/mL

CC(C)(O/N=C(\C(=O)N[C@@H]1C(=O)N2C(C(=O)[O-])=C(C[n+]3ccccc3)CS[C@H]12)c1csc(N)n1)C(=O)O [Ceftazidime]
MIC90 (A. baumannii [2]): 32 µg/mL
